In patent US20160317419A1, “METHOD OF IMPROVING SKIN HEALTH AND COMPOSITIONS THEREFOR” (The Procter & Gamble Company, priority 2015, published 2016):

Legend:
Assay type in all cases: cell-based
[1] = test system: keratinocytes; test: ATP Assay: ATP depletion caused by hydrogen peroxide in keratinocytes (Cell Titer-Glo); details: 1 hour
Description: The keratinocytes were cultured in T150 flasks using EPILIFE brand culture medium (calcium free and phenol red free, supplemented with penicillin/streptomycin and keratinocytes growth supplement, Invitrogen cat# […]500). The keratinocytes were then plated in 24 well plates with 40,000 cells/well and 1 ml of culture medium. After 24 hours, the keratinocytes were treated with 500 uM hydrogen peroxide alone, 400 uM niacinamide, 400 uM nicotinamide riboside or a combination of niacinamide and nicotinamide riboside (400 uM each) for 1 hour. Untreated keratinocytes were used as a control (i.e., keratinocytes in culture medium). The keratinocytes were washed in PBS and ATP levels were measured using the Cell Titer-Glo® brand ATP assay available from Promega, Madison, Wis. as catalogue # G7571/2/3 according to the manufacturer's instructions. Luminescence was measured on a SPECTRAMAX M3 brand microplate reader (Molecular Devices, Sunnyvale, Calif.). The net luminescence for a test sample is calculated by subtracting the observed luminescence value for the control from the observed luminescence value for the test sample.

[2] = test system: human dermal fibroblasts obtained from the BJ cell line; test: ECAR Method: glycolytic ATP production rate of fibroblasts exposed to hydrogen peroxide; details: for % Change from Control: vs media control
Description: Glycolytic ATP production by fibroblasts exposed to hydrogen peroxide was determined using an XF Extracellular Flux brand analyzer available from Seahorse Bioscience, Massachusetts The analyzer measured extracellular acidification rate (“ECAR”) in real time, which correlates to glycolytic ATP production. The cells used in this test were frozen human dermal fibroblasts obtained from the BJ cell line commercially available from ATCC, Bethesda, Md. […] The fibroblasts were plated at 8×10^4 cells per well in gelatin-coated plates 24 hours prior to testing. Each well included 100 μL of the culture medium described above. The gelatin-coated plates are prepared by coating each well in a multi-well plate (e.g., 24-well or 96-well plates available from Seahorse Biosciences, Massachusetts) with 0.2% gelatin (protein solution available from Sigma) diluted with phosphate buffered saline (“PBS”). The gelatin is diluted 1:10 to 0.2% in sterile PBS at 37° C., and then 50 uL of the diluted gelatin solution is added to each well and incubated at room temperature for 30 minutes. Excess liquid is removed by aspiration without touching the wells and the surface is allowed to dry for at least 2 hours. Hydrogen peroxide is a well-known ROS, and is used in this example as a source of oxidative stress on the fibroblasts being tested. A stressor solution of hydrogen peroxide was prepared at 10× working concentration in the fibroblast test medium described above. The test agents (i.e., nicotinamide riboside, niacinamide, and nicotinamide riboside+niacinamide in combination) were prepared at 10× the final working concentration in the fibroblast test medium to provide test agent solutions. The stressor solution and the test agent solutions were warmed to 37° C. and pH adjusted to 7.4. A fibroblast test medium was made from Dulbecco's Modified Eagle Medium (available from Seahorse Bioscience), 25 mM glucose and 1 mM pyruvate. The fibroblast test medium was warmed to 37° C. and the pH adjusted to 7.4. The cells were grown and plated at 37° C. and 5% CO2 air. The culture medium in the wells was replaced by the fibroblast test medium 1 hour prior to taking measurements. Each well contained approximately 8×10^4 cells and 600 μL of fibroblast test medium (i.e., DMEM, 25 mM glucose and 1 mM pyruvate) at 37° C. and pH 7.4. The plates containing the samples to be tested were loaded into the analyzer and equilibrated according to the manufacturer's instructions. The test agent solutions and stressor solution were each placed in an automated injection port of the XF cartridge plate. The analyzer was programmed to sequentially run a two minute mix cycle, a two minute wait cycle, and a 3 minute measurement cycle continuously for at least 88 minutes. Data points were collected and recorded by the analyzer. The analyzer was allowed to complete three cycles prior to the addition of a stressor solution or test agent solution to provide a basal ECAR value. After the third cycle was completed (i.e., about 21 minutes after detection began), the test solution and/or stressor solution was added to the wells by the analyzer from the appropriate injection port. A stressor solution was added to the well in sufficient amount to provide 1.5 mM hydrogen peroxide in the well. The test agent solution was added in sufficient amount to provide 250 μM or 500 μM niacinamide or nicotinamide riboside in the well.

[3] = test system: antioxidant response element (ARE); test: ARE Assay (ARE-32 luciferase reporter cell line); details: 24 hrs, control subtracted
Description: ARE activation was quantitated using the ARE-32 reporter cell line available from CXR-Biosciences as described in the ARE Assay below. ARE-32 is a stable MCF7 cell line containing pGL8x-ARE (8 copies of the rat GST ARE linked to the luciferase gene) and pCDNA3.1, which contains the neomycin selectable marker. Selection was performed in the presence of G418 and resistant clones were isolated. Clones were screened for induction of luciferase in response to tBHQ. The ARE-32 cells are maintained routinely in the DMEM (phenol red free) containing: 10% FBS, 50 units/ml penicillin & 50 μg/ml streptomycin, 0.8 mg/ml G418. Cells are subcultured every 3-4 days. Cells were frozen in medium that contains 90% FBS and 10% DMSO. In a 96 well-plate, seed 1×10^4 cells/well in 100 μl DMEM containing 50 units/ml penicillin, 50 μg/ml streptomycin, 0.8 mg/ml G418 and 10% FBS. Next, incubate the cells at 37° C. in a 5% CO2 incubator for 24 hrs, and then replace the medium with 100 μl fresh media. Treat with test compounds at 2 ul per well, positive control was 25 uM TBHQ. (10 mM tBHQ of stock solution freshly prepared in DMSO). Add 100 ul of media after treatment for a final assay volume of 200 uL. Incubate the cells at 37° C. in the CO2 incubator for another 24 hrs. Assay for luciferase activity with a STEADY-GLO brand assay system according to the manufacturer's instructions. A general schematic for how the ARE reporter assay operates to identify agents that promote transcription off the ARE is described in U.S. Publication No. 2011/0262570. The results of the test are illustrated in Table 1 and FIG. 3. The ARE activity for […] (“NR”), niacinamide (“N”) and the combination of nicotinamide riboside and niacinamide is reported as net luminescence in Table 1. Net luminescence for a test sample is determined by subtracting the luminescence value of the control from the luminescence value of the test sample. The calculated net luminescence for NR+N is the sum of the individual measured luminescence values for NR and N.

[4] = 400 uM (each) with 500 uM hydrogen peroxide
[5] = 500 μM test agent with 1.5 mM hydrogen peroxide

| Molecule | % depletion vs. control (ATP) [1, 4] [%] | Net Luminescence AVG [1, 4] | % depletion vs. control (ATP) ([1]; 400 uM (each) with 500 uM hydrogen peroxide, listed as niacinamide) | Observed ECAR [2, 5] [mpH/min] | % Change from Control [2, 5] [%] | Net Luminescence ([3]; NR 0.011 w/v %, N 0.0125 w/v %) | Net Luminescence ([3]; NR 0.021 w/v %, N 0.025 w/v %) | Net Luminescence ([3]; NR 0.042 w/v %, N 0.05 w/v %) | Net Luminescence ([3]; NR 0.0842 w/v %, N 0.1 w/v %) | % depletion vs. control (ATP) ([1]; 400 uM (each) with 500 uM hydrogen peroxide, listed as nicotinamide riboside) [%] | % depletion vs. control (ATP) ([1]; 500 uM hydrogen peroxide alone) [%] | Net Luminescence AVG ([1]; 500 uM hydrogen peroxide alone) | % depletion vs. control (ATP) ([1]; 500 uM hydrogen peroxide alone, listed as H2O2) [%] | Observed ECAR ([2]; 1.5 mM hydrogen peroxide alone) [mpH/min] | % Change from Control ([2]; 1.5 mM hydrogen peroxide alone) [%] |
| --- | --- | --- | --- | --- | --- | --- | --- | --- | --- | --- | --- | --- | --- | --- | --- |
| NC(=O)c1cccnc1 [N, niacinamide] | 89.7 | 6539 | about 89.7% | 15.35 | −48.6 | 13 | 26 | 71 | 75 |  |  |  |  |  |  |
| nicotinamide riboside [NR] | 96.9 | 1971.5 |  | 14.31 | −52.1 | 205 | 594 | 1845 | 5176 | ~96.9 |  |  |  |  |  |
| OO [Hydrogen Peroxide, hydrogen peroxide, reference compound] |  |  |  |  |  |  |  |  |  |  | ~97.5 | 1556 | 97.5 | 8.96 | −70.0 |
